Values of other authors in patent US20030149013A1, “Methods of treating bacterial infections in dogs and cats” (priority 2001, published 2003).
Like-named read-outs stand apart in the source and are kept apart here.

Key:
[1] = dog

SMILES | Rat t1/2 (PO (per os)) | Canine t1/2 ([1]; PO (per os)) | Rat t1/2 (IM (intramuscular)) | Canine t1/2 ([1]; IM (intramuscular))
CC1=C(C(=O)O)N2C(=O)[C@@H](NC(=O)[C@H](N)C3=CCC=CC3)[C@H]2SC1 [Cephadrine] | 0.82 (PO) h | 3.64 (P0) h | – | –
O=C(Cc1cccs1)N[C@@H]1C(=O)N2C(C(=O)[O-])=C(C[n+]3ccccc3)CS[C@H]12 [Cephalordine] | – | – | 0.5 (IM) h | 0.97 (IM) h
